Laboratory results published in PubChem BioAssay AID1259407 (Chemical Carcinogenesis Research Information System (CCRIS), 2018).
Active and inactive are the calls of the source. The rule behind the calls is not given here.

Test system: CCRIS mutagenicity, Ames/micronucleus/aberration tests
Assay: CCRIS mutagenicity studies
[1] = Test System: AMES SALMONELLA TYPHIMURIUM, Strain/Indicator: TA98, Metabolic Activation: NONE, Method: PREINCUBATION
[2] = Test System: AMES SALMONELLA TYPHIMURIUM, Strain/Indicator: TA100, Metabolic Activation: NONE, Method: PREINCUBATION
[3] = Test System: AMES SALMONELLA TYPHIMURIUM, Strain/Indicator: TA1535, Metabolic Activation: NONE, Method: PREINCUBATION
[4] = Test System: AMES SALMONELLA TYPHIMURIUM, Strain/Indicator: TA100, Metabolic Activation: NONE, Method: STANDARD PLATE
[5] = Test System: AMES SALMONELLA TYPHIMURIUM, Strain/Indicator: TA98, Metabolic Activation: NONE, Method: STANDARD PLATE
[6] = Test System: AMES SALMONELLA TYPHIMURIUM, Strain/Indicator: TA98, Metabolic Activation: RAT, LIVER, S-9, AROCLOR 1254, Method: STANDARD PLATE
[7] = Test System: AMES SALMONELLA TYPHIMURIUM, Strain/Indicator: TA100, Metabolic Activation: RAT, LIVER, S-9, AROCLOR 1254, Method: STANDARD PLATE
[8] = Test System: AMES SALMONELLA TYPHIMURIUM, Strain/Indicator: TA1535, Metabolic Activation: NONE, Method: STANDARD PLATE
[9] = Test System: AMES SALMONELLA TYPHIMURIUM, Strain/Indicator: TA1535, Metabolic Activation: RAT, LIVER, S-9, AROCLOR 1254, Method: STANDARD PLATE
[10] = Test System: AMES SALMONELLA TYPHIMURIUM, Strain/Indicator: TA1537, Metabolic Activation: NONE, Method: STANDARD PLATE
[11] = Test System: AMES SALMONELLA TYPHIMURIUM, Strain/Indicator: TA1537, Metabolic Activation: RAT, LIVER, S-9, AROCLOR 1254, Method: STANDARD PLATE
[12] = Test System: AMES SALMONELLA TYPHIMURIUM, Strain/Indicator: TA1538, Metabolic Activation: NONE, Method: STANDARD PLATE
[13] = Test System: AMES SALMONELLA TYPHIMURIUM, Strain/Indicator: TA1538, Metabolic Activation: RAT, LIVER, S-9, AROCLOR 1254, Method: STANDARD PLATE

**Q.** With `c1ccc2[nH]cnc2c1` as the molecule, how does the mutagenic call (Test System: AMES SALMONELLA TYPHIMURIUM, Strain/Indicator: TA97, Metabolic Activation: HAMSTER, LIVER, S-9, AROCLOR 1254 (10 OR 30%), Method: PREINCUBATION) read?
**A.** inactive; negative

**Q.** What about the mutagenic call (Test System: AMES SALMONELLA TYPHIMURIUM, Strain/Indicator: TA97, Metabolic Activation: NONE, Method: PREINCUBATION) of the same molecule?
**A.** inactive; negative

**Q.** And the mutagenic call (Test System: AMES SALMONELLA TYPHIMURIUM, Strain/Indicator: TA97, Metabolic Activation: RAT, LIVER, S-9, AROCLOR 1254 (10 OR 30%), Method: PREINCUBATION)?
**A.** inactive; negative

**Q.** What about the mutagenic call (Test System: AMES SALMONELLA TYPHIMURIUM, Strain/Indicator: TA98, Metabolic Activation: HAMSTER, LIVER, S-9, AROCLOR 1254 (10 OR 30%), Method: PREINCUBATION) of the same molecule?
**A.** inactive; negative

**Q.** What about the mutagenic call [1] of the same molecule?
**A.** inactive; negative

**Q.** And the mutagenic call (Test System: AMES SALMONELLA TYPHIMURIUM, Strain/Indicator: TA98, Metabolic Activation: RAT, LIVER, S-9, AROCLOR 1254 (10 OR 30%), Method: PREINCUBATION)?
**A.** inactive; negative

**Q.** What about the mutagenic call (Test System: AMES SALMONELLA TYPHIMURIUM, Strain/Indicator: TA100, Metabolic Activation: HAMSTER, LIVER, S-9, AROCLOR 1254 (10 OR 30%), Method: PREINCUBATION) of the same molecule?
**A.** inactive; negative

**Q.** And the mutagenic call [2]?
**A.** inactive; negative

**Q.** And the mutagenic call (Test System: AMES SALMONELLA TYPHIMURIUM, Strain/Indicator: TA100, Metabolic Activation: RAT, LIVER, S-9, AROCLOR 1254 (10 OR 30%), Method: PREINCUBATION)?
**A.** inactive; negative

**Q.** And the mutagenic call (Test System: AMES SALMONELLA TYPHIMURIUM, Strain/Indicator: TA1535, Metabolic Activation: HAMSTER, LIVER, S-9, AROCLOR 1254 (10 OR 30%), Method: PREINCUBATION)?
**A.** inactive; negative

**Q.** And the mutagenic call [3]?
**A.** inactive; negative

**Q.** What about the mutagenic call (Test System: AMES SALMONELLA TYPHIMURIUM, Strain/Indicator: TA1535, Metabolic Activation: RAT, LIVER, S-9, AROCLOR 1254 (10 OR 30%), Method: PREINCUBATION) of the same molecule?
**A.** inactive; negative

**Q.** And the mutagenic call (Test System: AMES SALMONELLA TYPHIMURIUM, Strain/Indicator: TA1537, Metabolic Activation: HAMSTER, LIVER, S-9, AROCLOR 1254 (10 OR 30%), Method: PREINCUBATION)?
**A.** inactive; negative

**Q.** And the mutagenic call (Test System: AMES SALMONELLA TYPHIMURIUM, Strain/Indicator: TA1537, Metabolic Activation: NONE, Method: PREINCUBATION)?
**A.** inactive; negative

**Q.** What about the mutagenic call (Test System: AMES SALMONELLA TYPHIMURIUM, Strain/Indicator: TA1537, Metabolic Activation: RAT, LIVER, S-9, AROCLOR 1254 (10 OR 30%), Method: PREINCUBATION) of the same molecule?
**A.** inactive; negative

**Q.** What does the source list for `CNC(=O)ON(C(C)=O)C(=O)NC`?
**A.** mutagenic call (Test System: AMES SALMONELLA TYPHIMURIUM, Strain/Indicator: TA98, Metabolic Activation: RAT, LIVER, S-9, Method: STANDARD PLATE): active; positive; mutagenic call [4]: inactive; negative

**Q.** With `Cc1cc(NS(=O)(=O)c2ccc(N)cc2)no1` as the molecule, how does the mutagenic call (End Point: AMES SALMONELLA TYPHIMURIUM, Test System: TA98, Metabolic Activation: NONE, Method: STANDARD PLATE) read?
**A.** active; positive

**Q.** And the mutagenic call (End Point: AMES SALMONELLA TYPHIMURIUM, Test System: TA100, Metabolic Activation: NONE, Method: STANDARD PLATE)?
**A.** active; positive

**Q.** With `CC1=C2C(=CC(C)(C)[C@@H]2O)C(=O)[C@](C)(O)C12CC2` as the molecule, how does the mutagenic call [1] read?
**A.** active; positive

**Q.** Which mutagenic call [4] does the source give for `COc1ccc(CNC(=O)C(C)Br)cc1` (configuration not stated) here?
**A.** active; positive

**Q.** For `Cc1cc(N)c([N+](=O)[O-])cc1N`, which mutagenic call [5] is on record?
**A.** inactive; negative

**Q.** What about the mutagenic call [6] of the same molecule?
**A.** active; positive

**Q.** And the mutagenic call [4]?
**A.** inactive; negative

**Q.** And the mutagenic call [7]?
**A.** inactive; negative

**Q.** What about the mutagenic call [8] of the same molecule?
**A.** inactive; negative

**Q.** And the mutagenic call [9]?
**A.** inactive; negative

**Q.** What about the mutagenic call [10] of the same molecule?
**A.** inactive; negative

**Q.** What about the mutagenic call [11] of the same molecule?
**A.** active; positive

**Q.** And the mutagenic call [12]?
**A.** inactive; negative

**Q.** What about the mutagenic call [13] of the same molecule?
**A.** active; positive

**Q.** For `c1ccc2c(c1)-c1cc3ccc4ccccc4c3cc1C1OC21` (configuration not stated), which mutagenic call [5] is on record?
**A.** inactive; negative

**Q.** And the mutagenic call [4]?
**A.** inactive; negative

**Q.** And the mutagenic call [10]?
**A.** active; positive

**Q.** And the mutagenic call (Test System: CHINESE HAMSTER V-79, Strain/Indicator: V-79/8-AZAGUANINE, Metabolic Activation: NONE, Method: STANDARD PLATE)?
**A.** active; positive

**Q.** How did the mutagenic call [5] turn out when `O=[N+]([O-])c1ccc2cc3c(cc2c1)C=C[C@@H](O)[C@@H]3O` was run?
**A.** active; positive

**Q.** What about the mutagenic call [6] of the same molecule?
**A.** active; positive

**Q.** With `CN(CCCC(O)c1cccnc1)N=O` (configuration not stated) as the molecule, how does the mutagenic call (Test System: AMES SALMONELLA TYPHIMURIUM, Strain/Indicator: TA1535, Metabolic Activation: HAMSTER LIVER S-9, AROCLOR 1254 (5% OR 10%), Method: MICROSUPENSION) read?
**A.** active; positive

**Q.** And the mutagenic call (Test System: AMES SALMONELLA TYPHIMURIUM, Strain/Indicator: TA1535, Metabolic Activation: RAT LIVER S-9, AROCLOR 1254 (5% OR 10%), Method: MICROSUSPENSION)?
**A.** active; positive

**Q.** Which mutagenic call (Test System: AMES SALMONELLA TYPHIMURIUM, Strain/Indicator: TA98(1,8-DNP6), Metabolic Activation: NONE, Method: PREINCUBATION) does the source give for `Cn1c([N+](=O)[O-])nc2ncc(-c3ccccc3)cc21` here?
**A.** active; positive

**Q.** What about the mutagenic call (Test System: AMES SALMONELLA TYPHIMURIUM, Strain/Indicator: TA98(NR), Metabolic Activation: NONE, Method: PREINCUBATION) of the same molecule?
**A.** active; positive

**Q.** And the mutagenic call [1]?
**A.** active; positive

**Q.** What about the mutagenic call (Test System: AMES SALMONELLA TYPHIMURIUM, Strain/Indicator: YG1024, Metabolic Activation: NONE, Method: PREINCUBATION) of the same molecule?
**A.** active; positive

**Q.** What does the source list for `COc1c2ccoc2nc2c(O)cccc12`?
**A.** mutagenic call [5]: inactive; negative; mutagenic call (Test System: AMES SALMONELLA TYPHIMURIUM, Strain/Indicator: TA98, Metabolic Activation: RAT LIVER S-9, PHENOBARTITAL, Method: STANDARD PLATE): active; positive

**Q.** Which results are given for `CN(CCO)C(=O)Nc1ccc(Cl)c(Cl)c1`?
**A.** mutagenic call [5]: inactive; negative; mutagenic call [6]: inactive; negative; mutagenic call [4]: inactive; negative; mutagenic call [7]: inactive; negative; mutagenic call [8]: inactive; negative; mutagenic call [9]: inactive; negative; mutagenic call [10]: inactive; negative; mutagenic call [11]: inactive; negative; mutagenic call [12]: inactive; negative; mutagenic call [13]: inactive; negative

**Q.** What does the source list for `CN1CCN(c2ccc3nc(-c4ccc5nc(-c6ccc(O)cc6)[nH]c5c4)[nH]c3c2)CC1`?
**A.** mutagenic call [5]: inactive; negative; mutagenic call [4]: inactive; negative; mutagenic call (Test System: AMES SALMONELLA TYPHIMURIUM, Strain/Indicator: TA102, Metabolic Activation: NONE, Method: STANDARD PLATE): inactive; negative

**Q.** Which mutagenic call [2] does the source give for `CCCN(N=O)/C(N)=N/[N+](=O)[O-]` here?
**A.** active; positive

**Q.** And the mutagenic call (Test System: AMES SALMONELLA TYPHIMURIUM, Strain/Indicator: TA100, Metabolic Activation: RAT, LIVER, S-9, KC500 OR PHENOBARBITAL, Method: LIQUID SUSPENSION)?
**A.** active; positive

**Q.** And the mutagenic call [3]?
**A.** active; positive

**Q.** And the mutagenic call [8]?
**A.** active; positive

**Q.** What about the mutagenic call (Test System: AMES SALMONELLA TYPHIMURIUM, Strain/Indicator: TA1535, Metabolic Activation: RAT, LIVER, S-9, KC500 OR PHENOBARBITAL, Method: LIQUID SUSPENSION) of the same molecule?
**A.** active; positive

**Q.** What about the mutagenic call (Test System: AMES SALMONELLA TYPHIMURIUM, Strain/Indicator: YG7104, Metabolic Activation: NONE, Method: PREINCUBATION) of the same molecule?
**A.** active; positive

**Q.** And the mutagenic call (Test System: AMES SALMONELLA TYPHIMURIUM, Strain/Indicator: YG7108, Metabolic Activation: NONE, Method: PREINCUBATION)?
**A.** active; positive

**Q.** And the mutagenic call (Test System: AMES SALMONELLA TYPHIMURIUM, Strain/Indicator: YG7112, Metabolic Activation: NONE, Method: PREINCUBATION)?
**A.** active; positive

**Q.** What about the mutagenic call (Test System: AMES SALMONELLA TYPHIMURIUM, Strain/Indicator: YG7113, Metabolic Activation: NONE, Method: PREINCUBATION) of the same molecule?
**A.** active; positive
